From US20210038563A1, “NEW SPIRONOLACTONE FORMULATIONS AND THEIR USE” (Apidel SA, priority 2018, published 2021)

Legend:
MR = settings: Corvol et al. [19]; cited from earlier work
[1] = biological target: mineralocorticoid receptor; settings: Sutanto et al. [20]; read-out: half maximal inhibitory concentrations (IC50); cited from earlier work
[2] = tested on: dexamethasone-induced delayed corneal wound healing; assay: Corneal re-epithelialization evaluation (fluorescein test) after corneal de-epithelialization; format: in vivo, New Zealand white rabbit; settings: Day 4; mean ± SD
Experimental: Fifty male albino New Zealand rabbits weighing approximately 2.3-3.0 kg were included for this study (Iris Pharma, France). Animals were housed individually in standard cages, under identical environmental conditions. The temperature was kept at 15-21° C. and the relative humidity was >45%. Rooms were continuously ventilated (>15 air volumes per hour). Temperature and relative humidity were continuously controlled and recorded. Animals were routinely exposed (in-cage) to a 10-200 1× light in a 12-hour light/dark cycle (from 7:00 a.m. to 7:00 p.m.). Animals had enrichment and free access to food (150 g/day) and were allowed water ad libitum. All animals were healthy and free of clinically observable ocular abnormalities throughout the study. […]
The animals were anesthetized by an intramuscular injection of a ketamine-xylazine mixture. […] De-epithelialization was monitored by fluorescein staining. […]
The size of the corneal wound was evaluated using the fluorescein test immediately after ocular debridement and once a day before the first instillation of the day. A baseline was recorded before the de-epithelialization. […] Images of the corneal lesion (area stained by fluorescein) were taken using a CCD camera and analyzed using image J software. […]

[3] = [26, 27]; cited from earlier work

In the case of `C[C@]12CCC(=O)C=C1C=C[C@@H]1[C@@H]2CC[C@@]2(C)[C@H]1CC[C@@]21CCC(=O)O1` [CAN, Canrenone], the “Affinity for the MR, fold lower as compared to SPL” value (MR) is listed as 10 fold.

In the case of `C[C@]12CCC(=O)C=C1C=C[C@@H]1[C@@H]2CC[C@@]2(C)[C@H]1CC[C@@]2(O)CCC(=O)O` [CANK, potassium canrenoate], the IC50 [1] is given as > 1000 nM and the “Affinity for the MR” value (MR) is given as “very low affinity”.

In the case of `C[C@@H]1C[C@H]2[C@@H]3CCC4=CC(=O)C=C[C@]4(C)[C@@]3(F)[C@@H](O)C[C@]2(C)[C@@]1(O)C(=O)CO` [DXM, Dexamethasone], the “Mean percentage of re-epithelialization” value [2] is reported as 84.6±13.9%.

In the case of `CC(=O)S[C@@H]1CC2=CC(=O)CC[C@]2(C)[C@H]2CC[C@@]3(C)[C@@H](CC[C@@]34CCC(=O)O4)[C@H]12` [SPL, 7α-Acetylthio-17α-hydroxy-3-oxopregn-4-ene-21-carboxylic acid γ-lactone], the plasma half-life [3] is listed as 1.4 h.

For `CS[C@@H]1CC2=CC(=O)CC[C@]2(C)[C@H]2CC[C@@]3(C)[C@@H](CC[C@@]34CCC(=O)O4)[C@H]12` [TMSPL, 7α-thiomethylspironolactone], the plasma half-life [3] is given as 13.8 h.
